Data reported in patent US20070042970A1, “Folate-modified cholesterol-bearing pullulan as a drug carrier” (priority 2005, published 2007).

Experiments:
TIG-1-20 cells = assay: Cell counting experiment (trypan blue, hematocytometer); type: cell-based; settings: 0.2 mg/L DOX; at least for 2 days; folate-depleted DMEM
Procedure: Cells of either KB or TIG-1-20 were plated in 6 well cultivation plates and preincubated for 2-3 days, and each cultivation medium was replaced with new one (1.98 ml) just before the addition of anticancer reagents (0.02 ml). At the time of the addition, cell densities were about 5×10^4/ml for TIG-1-20, and about 15×10^4/ml for KB (each ca. 20-25% of their confluent states). The additives mainly used were; Control 1: PBS, Control 2 (FC): FA-CHP (1 mg)-CHP (4 mg) complex solution in 1 ml PBS, DOX 1: 0.02 mg doxorubicin/ml-PBS, DOX 2: 0.03 mg doxorubicin/ml-PBS, FA-CHP-CHP-DOX 1 (FCD 1): FA-CHP (1 mg)-CHP (4 mg)-DOX (0.02 mg) in 1 ml PBS, FA-CHP-CHP-DOX 2 (FCD 2): FA-CHP (1 mg)-CHP (4 mg)-DOX (0.03 mg) in 1 ml PBS. Drug mixtures with other composition were also tested essentially by the same procedure.
The culture medium was removed to 15 ml centrifugation tube, and cells remained attached to the dish were removed with Sigma cell dissociation solution (non-enzymatic, in PBS) in the case of KB, and with 0.05% trypsin and 0.02% EDTA solution in the case of TIG-1-20. […] After mixing with pipetting, all cells were counted on improved Neubauer hematocytometer. Detached cells were also counted by the same procedure after adjusting the removed medium to 2 ml.

[1] = type: physicochemical
Procedure: For example, 5.0 mg of FA-CHP can simply complex with 0.01 mg of DOX. Complexes of DOX with a mixture of FA-CHP and CHP are denoted as FA-CHP-CHP-DOX hereafter.

Row | Molecule | TIG-1-20 cell death / proliferation (cell number counting) (TIG-1-20 cells) | solubility in PBS [1]
1 | COc1cccc2c1C(=O)c1c(O)c3c(c(O)c1C2=O)C[C@@](O)(C(=O)CO)C[C@@H]3O[C@H]1C[C@H](N)[C@H](O)[C@H](C)O1 [DOX, Doxorubicin] | completely killed cell proliferation | –
2 | folate modified cholesterol-bearing pullulan [FA-CHP] | – | easily soluble
